For the series, the system named is SHR rats. Conditions: for Change in Mean Systolic Blood Pressure / Change in Heart rate: 2 mg/kg p.o. daily. Here is the method: Spontaneously hypertensive rats, three month-old, were used. […] Controls received an equivalent volume of tap water. Treatment lasted 14 days. During this period, systolic blood pressure was monitored on days 0, 4, 7 and 11, using a tail-cuff procedure. On day 14, systolic blood pressure was determined using the indwelling catheter procedure described in Example 7.

Where two headings read alike, the source gives them in different places.

For `C#CCN[C@H]1CCc2ccccc21` [S(-)PAI, S-(-)-N-propargyl-1-aminoindan], the “Change in Mean Systolic Blood Pressure” value (day 0, tap water 169.55 ± 7.73) stood at 166.88 ± 6.11 mmHg; the “Change in Mean Systolic Blood Pressure” value (day 4, tap water 177.82 ± 9.08) came out at 168.5 ± 12.8 mmHg; the “Change in Mean Systolic Blood Pressure” value (day 7, tap water 177.67 ± 10.21) was 172.13 ± 14.62 mmHg; the “Change in Mean Systolic Blood Pressure” value (day 11, tap water 178 ± 8.65) is given as 167.43 ± 14.23 mmHg. The “Change in Heart rate” value reads like this: (day 0, tap water 374.09 ± 7.17) 404.13 ± 32.86 beats/min; (day 4, tap water 403 ± 23.3) 394.5 ± 37.43 beats/min; (day 7, tap water 392.67 ± 24.66) 394.38 ± 24.47 beats/min; (day 11, tap water 371.25 ± 27.22) 408 ± 40.04 beats/min. Further, the “intraindividual and interindividual profile of systolic blood pressure and heart rate” value (chronic oral 2 mg/kg/day, in words) is listed as “no effect”.

The record behind these values is patent publication US6277886A (priority 1996, dated 2001).
